Measured values from US9428507B2, “Compounds for the treatment of malaria” (The Broad Institute, Inc., priority 2013, dated 2016).

These compounds were tested on Dd2 strain of P. falciparum (assay: Activity against the Dd2 strain of P. falciparum (SYBR Green I, 72-h incubation)). Details: Plasmodium falciparum, DD2, 72 h, read-out: EC^50 Dd2.
Assay type: cell-based
Experimental: The Dd2 strain of P. falciparum was cultured in complete medium (RPMI with L-glutamine, 4.3% heat-inactivated O-positive human serum, 2.08 mg/ml albumax, 0.013 mg/ml hypoxanthine, 1.17 mg/ml glucose, 0.18% NaHCO3, 0.031 M Hepes, 2.60 mM NaOH, and 0.043 mg/ml gentamicin) until the parasitemia reached 3-8%. Parasitemia was determined by checking at least 500 red blood cells from a Giemsa-stained blood smear. The Dd2 cultures along with tested O-positive red blood cells are centrifuged at room temperature at 2,000 rpm for 5 min using an Eppendorf centrifuge 581 OR with an A-4-81 rotor. The medium was aspirated off. For the compound screening, a parasite dilution at a 1% parasitemia and 1.0% hematocrit was created with screening medium (RPMI with L-glutamine, 4.16 mg/ml albumax II, 0.013 mg/ml hypoxanthine, 1.73 mg/ml glucose, 0.18% NaHCO3, 0.031M Hepes, 2.60 mM NaOH, and 0.043 mg/ml gentamicin). The suspension was gassed with 93% nitrogen, 4% carbon dioxide, and 3% oxygen and placed at 37° C. until needed. Using a liquid dispenser, 20 μl of screening medium was dispensed into 384-well, black, clear-bottom plates. With a PinTool, 100 nl of compounds dissolved in DMSO was transferred into the assay plates along with control compound (mefloquine). Next, 30 μl of the parasite suspension in screening medium was then dispensed into the assay plates such that the final parasitemia was 1%, and the final hematocrit was 1.0%. Final concentration of DMSO was 0.125%. Mefloquine at a final concentration of 20 μM and DMSO at a final concentration of 0.125% were used within the assay plates to serve as background and baseline controls, respectively. The assay plates were transferred to incubators (93% nitrogen, 4% carbon dioxide, and 3% oxygen during the 72-h incubation at 37° C.). Ten microliters of detection reagent consisting of 1 OX SYBR Green I (Invitrogen; supplied in 10,000× concentration) in lysis buffer (20 mM Tris-HCl, 5 mM EDTA, 0.16% Saponin wt/vol, 1.6% Triton X vol/vol) was dispensed into the assay plates. For optimal staining, the assay plates were left at room temperature for 24 h in the dark. The assay plates were read by using an Envision (PerkinElmer) reader, with 505 dichroic mirrors with 485-nm excitation and 530-nm emission settings, and the plate reads were from the bottom.
`COc1ccc2c3c([nH]c2c1)[C@H](CCO)N(C(C)=O)CC31CCN(C(=O)Nc2ccccc2F)CC1` [Compound 73, (S)-2′-acetyl-N-(2-fluorophenyl)-1′-(2-hydroxyethyl)-7′-methoxy-1′,2′,3′,9′-tetrahydrospiro [piperidine-4,4′-pyrido[3,4-b]indole]-1-carboxamide] was tested, and the EC50 was 468 nM. `COc1ccc2c3c([nH]c2c1)[C@H](C)NCC31CCN(C(=O)OC(C)(C)C)CC1` [Compound 30, (S)-tert-butyl 7′-methoxy-1′-methyl-1′,2′,3′,9′-tetrahydrospiro[piperidine-4,4′-pyrido[3,4-b]indole]-1-carboxylate] showed an EC50 of 7440 nM. `COc1ccc2c3c([nH]c2c1)[C@H](CO[Si](C)(C)C(C)(C)C)N(C(C)=O)CC31CCN(CCc2ccccc2F)CC1` [Compound 19, (R)-1-(1′-(((tert-butyldimethylsilyl)oxy)methyl)-1-(2-fluorophenethyl)-7′-methoxyspiro[piperidine-4,4′-pyrido[3,4-b]indol]-2′(1′H,3′H,9′H)-yl)ethanone] showed an EC50 of 1200 nM. In the case of `COc1ccc2c3c([nH]c2c1)[C@H](CO)N(Cc1ccncc1)CC31CN(Cc2ccc(-c3ccccn3)cc2)C1` [Compound 134, (R)-(7′-methoxy-1-(4-(pyridin-2-yl)benzyl)-2′-(pyridin-4-ylmethyl)-1′,2′,3′,9′-tetrahydrospiro [azetidine-3,4′-pyrido[3,4-b]indol]-1′-yl)methanol], the EC50 is reported as 2970 nM. `COc1ccc2c3c([nH]c2c1)[C@H](CO[Si](C)(C)C(C)(C)C)N(C(C)=O)CC31CCNCC1` [Compound 25, (R)-1-(1′-(((tert-butyldimethylsilyl)oxy)methyl)-7′-methoxyspiro[piperidine-4,4′-pyrido[3,4-b]indol]-2′(1′H,3′H,9′H)-yl)ethanone] showed an EC50 of 1620 nM. For `CCS(=O)(=O)N1CCC2(CC1)CN(S(=O)(=O)c1ccc(C)cc1)[C@@H](CO)c1[nH]c3cc(OC)ccc3c12` [Compound 124, (R)-(1-(ethylsulfony1)-7′-methoxy-2′-tosyl-1′,2′,3′,9′-tetrahydrospiro [piperidine-4,4′-pyrido[3,4-b]indol]-1′-yl)methanol], the EC50 was 880 nM. Compound `COc1ccc2c3c([nH]c2c1)[C@H](CO)N(C(C)=O)CC31CCN(C(=O)Nc2ccc(Cl)cc2)CC1` [Compound 10] has an EC50 of 3380 nM. With `COc1ccc2c3c([nH]c2c1)[C@H](CO)N(CCc1ccccc1)CC31CCN(C(=O)Nc2ccccc2F)CC1` [Compound 42, (R)-N-(2-fluorophenyl)-1′-(hydroxymethyl)-7′-methoxy-2′-phenethyl-1′,2′,3′,9′-tetrahydrospiro[piperidine-4,4′-pyrido[3,4-b]indole]-1-carboxamide] the EC50 was 1750 to 1900 nM. Work on `COc1ccc2c3c(n(C)c2c1)[C@H](CO)NCC31CCN(CC2CCCC2)CC1` [Compound 91, (R)-(1-(cyclopentylmethyl)-7′-methoxy-9′-methyl-1′,2′,3′,9′-tetrahydrospiro[piperidine-4,4′-pyrido[3,4-b]indol]-1′-yl)methanol] yielded an EC50 of 481 nM. For `COc1ccc2c3c(n(C)c2c1)[C@@H](CO)N(Cc1ccc(Cl)cc1)CC31CCN(CC2CC2)CC1` [Compound 132, (S)-(2′-(4-chlorobenzyl)-1-(cyclopropylmethyl)-7′-methoxy-9′-methyl-1′,2′,3′,9′-tetrahydrospiro [piperidine-4,4′-pyrido[3,4-b]indol]-1′-yl) methanol], the EC50 was 1670 nM. For `COc1ccc2c3c(n(C)c2c1)[C@H](CO)N(C(=O)Nc1ccc(F)cc1)CC31CN(C(=O)c2ccc3c(c2)OCO3)C1` [Compound 123, (R)-1-(benzo[d] [1,3]dioxole-5-carbonyl)-N-(4-fluorophenyl)-1′-(hydroxymethyl)-7′-methoxy-9′-methyl-3′,9′-dihydrospiro [azetidine-3,4′-pyrido[3,4-b]indole]-2′(1′H)-carboxamide], the EC50 was 683 nM. With `CC(=O)N1CC2(CCN(C(=O)Nc3ccccc3F)CC2)c2c([nH]c3cc(OC(C)C)ccc23)[C@@H]1CO` [Compound 141, (R)-2′-acetyl-N-(2-fluorophenyl)-1′-(hydroxymethyl)-7′-isopropoxy-1′,2′,3′,9′-tetrahydrospiro [piperidine-4,4′-pyrido[3,4-b]indole]-1-carboxamide] the EC50 was 6710 nM. In the case of `COc1ccc2c3c([nH]c2c1)[C@H](CO)N(Cc1ccccn1)CC31CCN(Cc2cccc(F)c2)CC1` [Compound 122], the EC50 is reported as 421 nM. `COc1ccc2c3c(n(C)c2c1)[C@H](CO)N(C(=O)Nc1ccc(F)cc1)CC31CCN(S(=O)(=O)c2cccc(F)c2)CC1` [Compound 114, (R)-N-(4-fluorophenyl)-1-((3-fluorophenyl)sulfonyl)-1′-(hydroxymethyl)-7′-methoxy-9′-methyl-3′,9′-dihydrospiro [piperidine-4,4′-pyrido[3,4-b]indole]-2′(1′H)-carboxamide] was tested, and the EC50 was 951 nM. `CCN1CC2(CCN(C(=O)OC(C)(C)C)CC2)c2c([nH]c3cc(OC)ccc23)[C@@H]1CO[Si](C)(C)C(C)(C)C` [Compound 56, (R)-tert-butyl 1′-(((tert-butyldimethylsilyl)oxy)methyl)-2′-ethyl-7′-methoxy-1′,2′,3′,9′-tetrahydrospiro [piperidine-4,4′-pyrido[3,4-b]indole]-1-carboxylate] gave an EC50 of 1040 to 8770 nM. `COc1ccc2c3c([nH]c2c1)[C@H](CO)N(C(=O)C1CC1)CC31CCN(C(=O)Nc2ccccc2F)CC1` [Compound 33, (R)-2′-(cyclopropanecarbonyl)-N-(2-fluorophenyl)-1′-(hydroxymethyl)-7′-methoxy-1′,2′,3′,9′-tetrahydrospiro[piperidine-4,4′-pyrido[3,4-b]indole]-1-carboxamide] gave an EC50 of 2980 nM. With `COc1ccc2c3c([nH]c2c1)[C@@H](CO)N(C(=O)CN(C)C)CC31CCN(CC2CCCCC2)CC1` [Compound 121, (S)-1-(1-(cyclohexylmethyl)-1′-(hydroxymethyl)-7′-methoxyspiro [piperidine-4,4′-pyrido[3,4-b]indol]-2′(1′H,3′H,9′H)-yl)-2-(dimethylamino) ethanone] the EC50 was 360 nM. For `COc1cccc(CN2CC3(CCN(Cc4ccccn4)CC3)c3c([nH]c4cc(OC)ccc34)[C@@H]2CO)c1` [Compound 127, (R)-(7′-methoxy-2′-(3-methoxybenzyl)-1-(pyridin-2-ylmethyl)-1′,2′,3′,9′-tetrahydrospiro [pipendine-4,4′-pyrido[3,4-b]indol]-1′-yl) methanol], the EC50 was 1790 nM. With `CCC(=O)N1CCC2(CC1)CN(Cc1cc(F)ccc1F)[C@H](CO)c1[nH]c3cc(OC)ccc3c12` [Compound 118, (S)-1-(2′-(2,5-difluorobenzyl)-1′-(hydroxymethyl)-7′-methoxy-1′,2′,3′,9′-tetrahydrospiro [piperidine-4,4′-pyrido[3,4-b]indol]-1-yl) propan-1-one] the EC50 was 1960 nM. For `COc1ccc2c3c([nH]c2c1)[C@H](CO)N(C(=O)C(F)(F)F)CC31CCN(C(=O)Nc2ccccc2F)CC1` [Compound 3, (R)-N-(2-fluorophenyl)-1′-(hydroxymethyl)-7′-methoxy-2′-(2,2,2-trifluoroacetyl)-1′,2′,3′,9′-tetrahydrospiro[piperidine-4,4′-pyrido[3,4-b]indole]-1-carboxamide], the EC50 was 1610 nM.

Same assay, conditions: read-out: EC^50 Dd2
With `COc1ccc2c3c(n(C)c2c1)[C@H](CO)N(Cc1ccc(Cl)cc1)CC31CCN(CC2CC2)CC1` [Compound 88, (R)-(2′-(4-chlorobenzyl)-1-(cyclopropylmethyl)-7′-methoxy-9′-methyl-1′,2′,3′,9′-tetrahydrospiro [piperidine-4,4′-pyrido[3,4-b]indol]-1′-yl)methanol] the EC50 was 1170 nM.
